Source: US20240026278A1, “BLOOD CELL LYSING AGENT FOR ISOLATING BACTERIA FROM BLOOD CULTURE” (Becton, Dickinson and Company, priority 2020, published 2024)

System: blood cells
Assay: Lysis of blood cells by the lysing agent
Type: cell-based
Conditions: in lysing buffer
From the text: Currently available methods employ saponin to lyse blood cells for isolating bacteria from positive blood cultures. […] It is probable that this identification failure is due to the blood cells not being completely lysed and/or a high content of blood debris. […] In some embodiments, SDA is very water soluble. An advantage of using SDA as the lysing agent for isolating bacteria from positive blood culture is that the MALDI score for challenging species such as Staphylococcus epidermidis can be higher than the cutoff value, leading to correct species identification. Moreover, processing times using SDA versus saponin can be nearly identical.
FIG. 1 depicts exemplary data related to MALDI scores for Staphylococcus epidermidis isolated from positive blood cultures using different lysing agents, namely saponin (SAP), Nonoxynol-9 (Somatic Cell Digestion Agent (SDA)), and a combination thereof. The concentration of each lysing agent was used at 0.52% (w/w). The score for acceptance of identification is greater than or equal to 1.8 for the Sepsityper database and 2.0 for the standard database. […] SDA is generally used as a spermicide by interacting with the lipids in the membranes of the acrosome and the midpiece of the sperm.

Nonoxynol-9 [SDA]
blood cell lysis: lyse blood cells very efficiently
